Experimental data taken from US20240384350A1, “METHODS OF TREATING CANCER WITH KINASE INHIBITORS” (BOARD OF REGENTS, THE UNIVERSITY OF TEXAS SYSTEM, priority 2021, published 2024).

Columns and labels:
Assay in all cases: Ba/F3 drug screening, Cell Titer Glo, IC50 Mut/WT
Type in all cases: cell-based
EGFR K757R = biological target: T1, EGFR K757R (Homo sapiens, UniProt P00533, K757R); settings: Ba/F3 cells, EGFR K757R (PACC), Mut/WT
T1 construct: expressed in transfected cells; host or cells: Ba/F3

EGFR G719S = biological target: T2, EGFR G719S (Homo sapiens, UniProt P00533, G719S); settings: Ba/F3 cells, EGFR G719S (PACC), Mut/WT
T2 construct: expressed in transfected cells; host or cells: Ba/F3

EGFR G719A = biological target: T3, EGFR G719A (Homo sapiens, UniProt P00533, G719A); settings: Ba/F3 cells, EGFR G719A (PACC), Mut/WT
T3 construct: expressed in transfected cells; host or cells: Ba/F3

EGFR E709K G719S = biological target: T4, EGFR E709K G719S (Homo sapiens, UniProt P00533, E709K/G719S); settings: Ba/F3 cells, EGFR E709K G719S (PACC), Mut/WT
T4 construct: expressed in transfected cells; host or cells: Ba/F3

EGFR L858R/C797S = biological target: T5, EGFR L858R/C797S (Homo sapiens, UniProt P00533, C797S/L858R); settings: Ba/F3 cells, EGFR L858R/C797S (PACC), Mut/WT
T5 construct: expressed in transfected cells; host or cells: Ba/F3

EGFR L718Q = biological target: T6, EGFR L718Q (Homo sapiens, UniProt P00533, L718Q); settings: Ba/F3 cells, EGFR L718Q (PACC), Mut/WT
T6 construct: expressed in transfected cells; host or cells: Ba/F3

EGFR D761N = biological target: T7, EGFR D761N (Homo sapiens, UniProt P00533, D761N); settings: Classical-Like, 72 hours
T7 construct: expressed in transfected cells; host or cells: Ba/F3 cells, retroviral pBabe-Puro vector

EGFR L858R/L792H = biological target: T8, EGFR L858R/L792H (Homo sapiens, UniProt P00533, L792H/L858R); settings: Ba/F3 cells, EGFR L858R/L792H (PACC), Mut/WT
T8 construct: expressed in transfected cells; host or cells: Ba/F3

EGFR G719A/R776C = biological target: T9, EGFR G719A/R776C (Homo sapiens, UniProt P00533, G719A/R776C); settings: Ba/F3 cells, EGFR G719A/R776C (PACC), Mut/WT
T9 construct: expressed in transfected cells; host or cells: Ba/F3
Experimental: (§1) Data represent the ratio of the IC50 value for a given TKI for cells with a PACC EGFR mutation to the IC50 value for cells with wildtype EGFR.
(§2) Ba/F3 cell generation, drug screening, and IC50 approximations. Ba/F3 cells were obtained as a gift from Dr. Gordon Mills (MD Anderson Cancer Center), and maintained in RPMI (Sigma) containing 10% FBS, 1% penicillin/streptomycin, and 10 ng/ml recombinant mIL-3 (R&D Biosystems). To establish stable Ba/F3 cell lines, Ba/F3 cells were transduced with retroviruses containing mutant EGFR plasmids for 12-24 hours.
(§3) After 48-72 hours of transduction, 2 μg/ml puromycin (Invitrogen) was added to Ba/F3 cell lines in complete RPMI. To select for EGFR positive cell lines, cells were stained with PE-EGFR (Biolegend) and sorted by FACS. After sorting, EGFR positive cells were maintained in RPMI containing 10% FBS, 1% penicillin/streptomycin, and 1 ng/ml EGF to support cell viability. Drug screening was performed as previously described^41,42. Shortly, cells were plated in 384-well plates (Greiner Bio-One) at 2000-3000 cells per well in technical triplicate. Seven different concentrations of TKIs or DMSO vehicle were added to reach a final volume of 40 μL per well. After 72 hours, 11 μL of Cell Titer Glo (Promega) was added to each well. Plates were incubated for a minimum of 10 minutes, and bioluminescence was determined using a FLUOstar OPTIMA plate reader (BMG LABTECH). Raw bioluminescence values were normalized to DMSO control treated cells, and values were plotted in GraphPad Prism. […] Drug screens were performed in technical triplicate on each plate and either duplicate or triplicate biological replicates.

EGFR L858R G724S = biological target: T10, EGFR L858R G724S (Homo sapiens, UniProt P00533, G724S/L858R); settings: Ba/F3 cells, EGFR L858R G724S (PACC), Mut/WT
T10 construct: expressed in transfected cells; host or cells: Ba/F3 (retroviral transduction, pBabe-Puro based vectors)
Experimental: as §1, §2, §3

EGFR G719A L861Q = biological target: T11, EGFR G719A L861Q (Homo sapiens, UniProt P00533, G719A/L861Q); settings: Ba/F3 cells, EGFR G719A L861Q (PACC), Mut/WT
T11 construct: expressed in transfected cells; host or cells: Ba/F3

EGFR L833V = biological target: T12, EGFR L833V (Homo sapiens, UniProt P00533, L833V); settings: Classical-Like, 72 hours
T12 construct: expressed in transfected cells; host or cells: Ba/F3 cells, retroviral pBabe-Puro vector

EGFR Ex19del/L792H = biological target: T13, EGFR Ex19del/L792H (Homo sapiens, UniProt P00533, DEL746-750/L792H); settings: Ba/F3 cells, EGFR Ex19del/L792H (PACC), Mut/WT
T13 construct: expressed in transfected cells; host or cells: Ba/F3
Experimental: as §1, §2, §3

EGFR L858R T790M V843I = biological target: T14, EGFR L858R T790M V843I (Homo sapiens, UniProt P00533, L858R/T790M/V843I); settings: T790M-like-3S, 72 hours
T14 construct: expressed in transfected cells; host or cells: Ba/F3
Experimental: Data represent the ratio of the IC50 value for a given TKI for cells with a T790M-like-3S EGFR mutation to the IC50 value for cells with wildtype EGFR.
as §2, §3

EGFR Ex19del = biological target: T15, EGFR Ex19del (Homo sapiens, UniProt P00533, DEL746-750); settings: Classical-Like, 72 hours
T15 construct: expressed in transfected cells; host or cells: Ba/F3 cells, retroviral pBabe-Puro vector
Experimental: (§4) Data represent the ratio of the IC50 value for a given TKI for cells with a classical-like EGFR mutation to the IC50 value for cells with wildtype EGFR.
as §2
(§5) After 48-72 hours of transduction, 2 μg/ml puromycin (Invitrogen) was added to Ba/F3 cell lines in complete RPMI. To select for EGFR positive cell lines, cells were stained with PE-EGFR (Biolegend) and sorted by FACS. After sorting, EGFR positive cells were maintained in RPMI containing 10% FBS, 1% penicillin/streptomycin, and 1 ng/ml EGF to support cell viability. […] Shortly, cells were plated in 384-well plates (Greiner Bio-One) at 2000-3000 cells per well in technical triplicate. Seven different concentrations of TKIs or DMSO vehicle were added to reach a final volume of 40 μL per well. After 72 hours, 11 μL of Cell Titer Glo (Promega) was added to each well. Plates were incubated for a minimum of 10 minutes, and bioluminescence was determined using a FLUOstar OPTIMA plate reader (BMG LABTECH). Raw bioluminescence values were normalized to DMSO control treated cells, and values were plotted in GraphPad Prism. […] Drug screens were performed in technical triplicate on each plate and either duplicate or triplicate biological replicates.

EGFR E709K = biological target: T16, EGFR E709K (Homo sapiens, UniProt P00533, E709K); settings: Ba/F3 cells, EGFR E709K (PACC), Mut/WT
T16 construct: expressed in transfected cells; host or cells: Ba/F3
Experimental: as §1, §2, §3

EGFR E709_T710del insD = biological target: T17, EGFR E709_T710del insD (Homo sapiens, UniProt P00533, DEL709-709/T710D); settings: Ba/F3 cells, EGFR E709_T710del insD (PACC), Mut/WT
T17 construct: expressed in transfected cells; host or cells: Ba/F3
Experimental: as §1, §2, §3

EGFR L858R T790M L718V = biological target: T18, EGFR L858R T790M L718V (Homo sapiens, UniProt P00533, L718V/L858R/T790M); settings: T790M-like-3R, 72 hours
T18 construct: expressed in transfected cells; host or cells: Ba/F3

EGFR S768dupSVD V769M = biological target: T19, EGFR S768dupSVD V769M (Homo sapiens, UniProt P00533, INS768MDS/V769M); settings: Ex20, 72 hours
T19 construct: expressed in transfected cells; host or cells: Ba/F3 cells, retroviral pBabe-Puro vector (vector made by GeneScript from EGFR S768dupSVD, c.2305G > A)
Experimental: Data represent the ratio of the IC50 value for a given TKI for cells with an ex20ins EGFR mutation to the IC50 value for cells with wildtype EGFR.
as §2
After 48-72 hours of transduction, 2 μg/ml puromycin (Invitrogen) was added to Ba/F3 cell lines in complete RPMI. To select for EGFR positive cell lines, cells were stained with PE-EGFR (Biolegend) and sorted by FACS. After sorting, EGFR positive cells were maintained in RPMI containing 10% FBS, 1% penicillin/streptomycin, and 1 ng/ml EGF to support cell viability. Drug screening was performed as previously described^41,42. Shortly, cells were plated in 384-well plates (Greiner Bio-One) at 2000-3000 cells per well in technical triplicate. Seven different concentrations of TKIs or DMSO vehicle were added to reach a final volume of 40 μL per well. After 72 hours, 11 μL of Cell Titer Glo (Promega) was added to each well. Plates were incubated for a minimum of 10 minutes, and bioluminescence was determined using a FLUOstar OPTIMA plate reader (BMG LABTECH). Raw bioluminescence values were normalized to DMSO control treated cells, and values were plotted in GraphPad Prism. […] Drug screens were performed in technical triplicate on each plate and either duplicate or triplicate biological replicates. […] Statistical differences between groups were determined by ANOVA as described in the figure legends.

EGFR G724S T790M = biological target: T20, EGFR G724S T790M (Homo sapiens, UniProt P00533, G724S/T790M); settings: T790M-like-3R, 72 hours
T20 construct: expressed in transfected cells; host or cells: Ba/F3

EGFR A763insLQEA = biological target: T21, EGFR A763insLQEA (Homo sapiens, UniProt P00533, INS763LQEA); settings: Classical-Like, 72 hours
T21 construct: expressed in transfected cells; host or cells: Ba/F3 cells, retroviral pBabe-Puro vector
Experimental: as §4, §2, §5

EGFR K754E = biological target: T22, EGFR K754E (Homo sapiens, UniProt P00533, K754E); settings: Classical-Like, 72 hours
T22 construct: expressed in transfected cells; host or cells: Ba/F3 cells, retroviral pBabe-Puro vector

EGFR L718V = biological target: T23, EGFR L718V (Homo sapiens, UniProt P00533, L718V); settings: Ba/F3 cells, EGFR L718V (PACC), Mut/WT
T23 construct: expressed in transfected cells; host or cells: Ba/F3
Experimental: as §1, §2, §3

ratio of the IC50 value for cells with a PACC EGFR mutation to the IC50 value for cells with wildtype EGFR (EGFR K757R): 0.1894
ratio of the IC50 value for cells with a PACC EGFR mutation to the IC50 value for cells with wildtype EGFR (EGFR G719S): 0.3756
ratio of the IC50 value for cells with a PACC EGFR mutation to the IC50 value for cells with wildtype EGFR (EGFR G719A): 0.1896
ratio of the IC50 value for cells with a PACC EGFR mutation to the IC50 value for cells with wildtype EGFR (EGFR E709K G719S): 0.7973
ratio of the IC50 value for cells with a PACC EGFR mutation to the IC50 value for cells with wildtype EGFR (EGFR L858R/C797S): 119.2
ratio of the IC50 value for cells with a PACC EGFR mutation to the IC50 value for cells with wildtype EGFR (EGFR L718Q): 11.32
ratio of IC50 for cells with mutant EGFR to IC50 for cells with wildtype EGFR (Mut/WT) (EGFR D761N): 0.3285
ratio of the IC50 value for cells with a PACC EGFR mutation to the IC50 value for cells with wildtype EGFR (EGFR L858R/L792H): 4.408
ratio of the IC50 value for cells with a PACC EGFR mutation to the IC50 value for cells with wildtype EGFR (EGFR G719A/R776C): 0.2136
ratio of the IC50 value for cells with a PACC EGFR mutation to the IC50 value for cells with wildtype EGFR (EGFR L858R G724S): 0.001759
ratio of the IC50 value for cells with a PACC EGFR mutation to the IC50 value for cells with wildtype EGFR (EGFR G719A L861Q): 0.8044
ratio of IC50 for cells with mutant EGFR to IC50 for cells with wildtype EGFR (Mut/WT) (EGFR L833V): 0.4446
ratio of the IC50 value for cells with a PACC EGFR mutation to the IC50 value for cells with wildtype EGFR (EGFR Ex19del/L792H): 1.778
ratio of IC50 for cells with mutant EGFR to IC50 for cells with wildtype EGFR (Mut/WT) (EGFR L858R T790M V843I): 0.6934
ratio of IC50 for cells with mutant EGFR to IC50 for cells with wildtype EGFR (Mut/WT) (EGFR Ex19del): 0.03035
ratio of the IC50 value for cells with a PACC EGFR mutation to the IC50 value for cells with wildtype EGFR (EGFR E709K): 0.207
ratio of the IC50 value for cells with a PACC EGFR mutation to the IC50 value for cells with wildtype EGFR (EGFR E709_T710del insD): 0.03063
ratio of IC50 for cells with mutant EGFR to IC50 for cells with wildtype EGFR (Mut/WT) (EGFR L858R T790M L718V): 19.66
ratio of IC50 for cells with mutant EGFR to IC50 for cells with wildtype EGFR (Mut/WT) (EGFR S768dupSVD V769M): 0.3864
ratio of IC50 for cells with mutant EGFR to IC50 for cells with wildtype EGFR (Mut/WT) (EGFR G724S T790M): 0.428
ratio of IC50 for cells with mutant EGFR to IC50 for cells with wildtype EGFR (Mut/WT) (EGFR A763insLQEA): 0.03029
ratio of IC50 for cells with mutant EGFR to IC50 for cells with wildtype EGFR (Mut/WT) (EGFR K754E): 0.01871
ratio of the IC50 value for cells with a PACC EGFR mutation to the IC50 value for cells with wildtype EGFR (EGFR L718V): 2.622
SMILES: C=CC(=O)Nc1cc(Nc2nccc(-c3c[nH]c4ccccc34)n2)c(OC)cc1N(C)CCN(C)C [AZ5104]
